Experimental data from publication PMC9402538, “Rational design of a sensitivity-enhanced tracer for discovering efficient APC–Asef inhibitors” (Nature Communications, 2022).
“And” between values parts separate entries of the source, which are not always exact repeats. Equal values may be shown once. Read-outs that look alike come from different tables or passages of the source. Where a SMILES comes first, the peptide text is derived from it. The star is where a group is joined. Pyrrole(1-Me-2-CO) = Cn1cccc1C(=O)*; Pyrrole2CO = O=C(c1ccc[nH]1)*; Picolinoyl = O=C(c1ccccn1)*

Experiments:
LS-174T cells = experiment: DBZ-induced goblet cell differentiation of LS-174T cells (RT-PCR); type: cell-based; conditions: 1 μM DBZ
Method: . Notch inhibition by dibenzazepine (DBZ) allows colorectal stem cells to differentiate into goblet cells, and the DBZ-induced goblet cell differentiation of LS-174T cells is a well-established intestinal differentiation model. […].
Total RNA was extracted using TRIzol reagent (Takara Bio Inc., Japan) following the manufacturer’s instructions. Total RNA (1 μg) was reverse-transcribed into cDNA using the PrimeScript RT Kit (Takara Bio Inc., Japan). Quantitative real-time reverse transcription-PCR was performed using a SYBR Green kit (Vazyme, China). β-Actin mRNA was employed as a reference gene for expression normalization. The qPCR primer sequences are listed in Supplementary Table 8. […]
Supplementary Fig. 17. Effect of […] on apoptosis and cell differentiation. a,b) Flow cytometry apoptosis analysis of SW480 (a) and HIEC-6 (b) cells treated with 25 μM MAIT -516 for 48 h, the gating strategy is shown for control sample . c) RT-PCR analysis of genes involved in intestinal cell differentiation ( MUC2, ATOH1, HES1, SPDEF and TFF3) in LS-174T cells. LS-174T cells were treated […]
mean ± SD (n = 3 independent experiments). p values were calculated by one-way ANOVA with Tukey’s multiple comparisons test.
Source data are provided as a Source Data file.
(1 picture or pasted object on this page, not shown here)

APC (303–739) = target: T1, APC (303–739) (Homo sapiens, UniProt P25054); experiment: FP competitive assay using tracer 7; type: binding; conditions: for IC50: Table 3 source data; for FP(mp): Tracer 7, replicate wells
T1 sequence (P25054 303-739): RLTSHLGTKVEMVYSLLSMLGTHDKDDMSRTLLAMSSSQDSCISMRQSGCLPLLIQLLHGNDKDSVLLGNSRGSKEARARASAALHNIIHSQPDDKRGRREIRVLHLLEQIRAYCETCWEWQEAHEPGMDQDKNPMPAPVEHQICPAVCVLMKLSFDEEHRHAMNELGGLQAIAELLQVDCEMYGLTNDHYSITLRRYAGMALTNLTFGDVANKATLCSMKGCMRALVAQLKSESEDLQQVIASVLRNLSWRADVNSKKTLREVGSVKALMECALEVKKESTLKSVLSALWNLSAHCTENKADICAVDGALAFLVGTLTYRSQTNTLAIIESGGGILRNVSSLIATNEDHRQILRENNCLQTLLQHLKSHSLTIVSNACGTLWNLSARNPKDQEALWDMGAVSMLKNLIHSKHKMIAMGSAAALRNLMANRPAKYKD
Outline: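 Fluorescence polarization competition: APC (303–739) in 50 mM HEPES pH 7.5, 300 mM NaCl, 1 mM EDTA, 1 mM DTT, preincubated 1 h at room temperature with serially diluted peptides. FITC tracer 7 then added (400 nM stock) and FP read after 1.5 h at room temperature; IC50 by nonlinear regression, triplicates.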

APC = target: T2, APC (Homo sapiens, UniProt P25054); experiment: FP competitive assay using tracer 1; type: binding; conditions: for IC50: Supplementary Table 4, read-out: IC50, Tracer 1; for FP(mp): Tracer 1, triplicate raw readings
T2 sequence (P25054 303-739): T1 sequence (P25054 303-739)
Method: In our previous study, we established an FP assay for screening APC–Asef inhibitors using FITC-labeled tracer 1 (Ac–^176[…][FITC]^195–NH2)[16]. […]. However, their Kd values measured by isothermal titration calorimetry (ITC) actually vary up to more than 20 times[16],[17]. […].
FITC-labeled tracer peptides were obtained from Changzhou Kanglong Biotech Ltd. (Changzhou, Jiangsu, China). […]. The FP signal changes upon tracer binding were measured after 1.5 h of incubation using a Synergy neo microplate reader (BioTek Instruments, Inc.) and plotted against the protein concentration. The corresponding EC50 values were generated by fitting the curves with a nonlinear regression model. […]. To make a working solution, APC (303–739) was diluted in FP buffer (50 mM HEPES, pH 7.5, 300 mM NaCl, 1 mM EDTA, 1 mM DTT). […] The FP signals were measured after 1.5 h of incubation at room temperature using a Synergy neo microplate reader. Three controls were included on each plate, i.e., blank (without protein and tracer), 100% inhibition (free tracer only), and 0% inhibition (protein/tracer complex only) controls. All experiments were performed in triplicate. The IC50 values of peptides were calculated by nonlinear regression analysis using GraphPad Prism 7.0 software.

[1] = Repeat 1, read-out: IC50(μM) Repeat 1
[2] = Repeat 2, read-out: IC50(μM) Repeat 2
[3] = Repeat 3, read-out: IC50(μM) Repeat 3
[4] = mean of 3 repeats, read-out: IC50(μM) mean

SMILES | IC50 (APC (303–739); [1]) [µM] | IC50 (APC (303–739); [2]) [µM] | IC50 (APC (303–739); [3]) [µM] | FP(mp) (APC (303–739); Conc. 0.0061 μM) | FP(mp) (APC (303–739); Conc. 0.0122 μM) | FP(mp) (APC (303–739); Conc. 0.0244 μM) | FP(mp) (APC (303–739); Conc. 0.05 μM) | FP(mp) (APC (303–739); Conc. 0.10 μM) | FP(mp) (APC (303–739); Conc. 0.20 μM) | FP(mp) (APC (303–739); Conc. 0.39 μM) | FP(mp) (APC (303–739); Conc. 0.78 μM) | FP(mp) (APC (303–739); Conc. 1.56 μM) | FP(mp) (APC (303–739); Conc. 3.13 μM) | FP(mp) (APC (303–739); Conc. 6.25 μM) | FP(mp) (APC (303–739); Conc. 12.50 μM) | FP(mp) (APC (303–739); Conc. 25.00 μM) | FP(mp) (APC (303–739); Conc. 50.00 μM) | IC50 (APC (303–739); [4]) [µM] | IC50 (APC) [nM] | FP(mp) (APC; Conc. 0.05 μM) | further results
C[C@H](NC(=O)Cc1cc(F)cc(F)c1)C(=O)N[C@@H]1C(=O)N(C)c2ccccc2-c2ccccc21 [DBZ, dibenzazepine] | – | – | – | – | – | – | – | – | – | – | – | – | – | – | – | – | – | – | – | – | mRNA level of NOTCH target gene HES1 (LS-174T cells): significantly suppressed; mRNA levels of goblet cell markers (MUC2, TFF3, ATOH1, SPDEF) (LS-174T cells): increasing the mRNA levels
CC(C)C[C@H](NC(=O)[C@H](CO)NC(=O)[C@H](CCC(=O)O)NC(=O)CNC(=O)[C@H](C)NC(=O)c1ccc[nH]1)C(=O)N[C@@H](Cc1ccc(O)cc1)C(=O)N[C@@H](CCC(=O)O)C(N)=O [MAI-509] (Pyrrole2CO-AGESLYE-NH2) | 0.595 | 0.526 | 0.599 | 288 mp and 294 mp and 291 mp | 287 mp and 290 mp and 289 mp | 290 mp (2×) and 292 mp | 281 mp and 276 mp and 278 mp | 261 mp and 262 mp and 266 mp | 233 mp and 232 mp and 238 mp | 196 mp and 201 mp and 193 mp | 163 mp and 164 mp (2×) | 129 mp and 126 mp (2×) | 103 mp and 101 mp (2×) | 81 mp and 84 mp and 83 mp | 71 mp and 69 mp and 67 mp | 65 mp and 63 mp (2×) | 63 mp and 60 mp (2×) | 0.573 | 640 ± 170 | 182 mp and 179 mp | FP(mp) (APC; Conc. 0.10 μM): 180 mp and 177 mp; FP(mp) (APC; Conc. 0.20 μM): 175 mp and 169 mp and 173 mp; FP(mp) (APC; Conc. 0.39 μM): 157 mp and 159 mp and 160 mp; FP(mp) (APC; Conc. 0.78 μM): 120 mp and 128 mp and 126 mp; FP(mp) (APC; Conc. 1.56 μM): 72 mp and 73 mp; FP(mp) (APC; Conc. 3.13 μM): 56 mp and 54 mp; FP(mp) (APC; Conc. 6.25 μM): 52 mp and 55 mp and 51 mp; FP(mp) (APC; Conc. 12.50 μM): 50 mp and 51 mp and 47 mp; FP(mp) (APC; Conc. 25.00 μM): 50 mp and 48 mp; FP(mp) (APC; Conc. 50.00 μM): 48 mp and 50 mp and 46 mp; FP(mp) (APC; Conc. 100.00 μM): 50 mp and 51 mp and 47 mp; FP(mp) (APC; Conc. 200.00 μM): 48 mp and 50 mp; FP(mp) (APC; Conc. 400.00 μM): 57 mp and 53 mp
CC(C)C[C@H](NC(=O)[C@H](CO)NC(=O)[C@H](CCC(=O)O)NC(=O)CNC(=O)[C@H](C)NC(=O)c1cccn1C)C(=O)N[C@@H](Cc1ccc(O)cc1)C(=O)N[C@@H](CCC(=O)O)C(N)=O [MAI-510] ({Pyrrole(1-Me-2-CO)}-AGESLYE-NH2) | 0.366 | 0.34 | 0.303 | 303 mp | 296 mp and 295 mp and 301 mp | 291 mp and 290 mp and 295 mp | 274 mp and 278 mp and 275 mp | 247 mp and 251 mp and 254 mp | 216 mp and 217 mp and 220 mp | 171 mp and 173 mp and 169 mp | 131 mp and 132 mp (2×) | 98 mp and 97 mp and 95 mp | 71 mp and 73 mp and 75 mp | 62 mp and 60 mp and 65 mp | 52 mp and 53 mp and 55 mp | 50 mp (2×) and 55 mp | 47 mp and 50 mp (2×) | 0.336 | 490 ± 130 | 182 mp and 181 mp and 180 mp | FP(mp) (APC; Conc. 0.10 μM): 170 mp and 178 mp and 179 mp; FP(mp) (APC; Conc. 0.20 μM): 158 mp and 172 mp; FP(mp) (APC; Conc. 0.39 μM): 146 mp and 158 mp and 159 mp; FP(mp) (APC; Conc. 0.78 μM): 82 mp and 112 mp and 116 mp; FP(mp) (APC; Conc. 1.56 μM): 61 mp and 63 mp and 64 mp; FP(mp) (APC; Conc. 3.13 μM): 52 mp and 51 mp and 53 mp; FP(mp) (APC; Conc. 6.25 μM): 51 mp and 50 mp; FP(mp) (APC; Conc. 12.50 μM): 49 mp and 48 mp; FP(mp) (APC; Conc. 25.00 μM): 49 mp and 46 mp and 48 mp; FP(mp) (APC; Conc. 50.00 μM): 46 mp and 47 mp and 50 mp; FP(mp) (APC; Conc. 100.00 μM): 48 mp and 49 mp and 50 mp; FP(mp) (APC; Conc. 200.00 μM): 48 mp and 47 mp; FP(mp) (APC; Conc. 400.00 μM): 50 mp and 52 mp
CC(C)C[C@H](NC(=O)[C@H](CO)NC(=O)[C@H](CCC(=O)O)NC(=O)CNC(=O)[C@H](C)NC(=O)c1ccccn1)C(=O)N[C@@H](Cc1ccc(O)cc1)C(=O)N[C@@H](CCC(=O)O)C(N)=O [MAI-512] (Picolinoyl-AGESLYE-NH2) | 1.04 | 0.958 | 0.93 | 305 mp and 310 mp and 308 mp | 307 mp and 310 mp (2×) | 298 mp and 303 mp and 300 mp | 293 mp and 300 mp and 297 mp | 290 mp and 286 mp and 291 mp | 266 mp and 274 mp and 271 mp | 242 mp and 240 mp and 236 mp | 199 mp (2×) and 200 mp | 160 mp and 157 mp and 158 mp | 119 mp (2×) and 121 mp | 94 mp and 89 mp and 91 mp | 80 mp and 77 mp and 78 mp | 69 mp and 66 mp and 65 mp | 61 mp and 57 mp and 60 mp | 0.976 | 750 ± 180 | 172 mp and 170 mp | FP(mp) (APC; Conc. 0.10 μM): 168 mp; FP(mp) (APC; Conc. 0.20 μM): 166 mp and 163 mp and 165 mp; FP(mp) (APC; Conc. 0.39 μM): 156 mp and 155 mp and 153 mp; FP(mp) (APC; Conc. 0.78 μM): 126 mp and 125 mp and 122 mp; FP(mp) (APC; Conc. 1.56 μM): 80 mp and 79 mp and 78 mp; FP(mp) (APC; Conc. 3.13 μM): 59 mp and 55 mp; FP(mp) (APC; Conc. 6.25 μM): 52 mp and 50 mp; FP(mp) (APC; Conc. 12.50 μM): 53 mp and 48 mp and 50 mp; FP(mp) (APC; Conc. 25.00 μM): 51 mp and 48 mp and 47 mp; FP(mp) (APC; Conc. 50.00 μM): 51 mp and 48 mp and 47 mp; FP(mp) (APC; Conc. 100.00 μM): 51 mp and 53 mp; FP(mp) (APC; Conc. 200.00 μM): 51 mp and 47 mp and 50 mp; FP(mp) (APC; Conc. 400.00 μM): 53 mp and 50 mp and 47 mp
